From patent US7776885B2, “Benzimidazolone compounds having 5-HT4 receptor agonistic activity” (Pfizer, Inc., priority 2003, dated 2010)
Counter-ions that a name gives are not always drawn.

Experiments:
[1] = biological target: T1, 5-HT4 receptors in the rat oesophagus (Rattus norvegicus, UniProt Q62758); assay: Functional assay in rat oesophagus TMM preparation (relaxation of carbachol-contracted tissue); details: 1 μM antagonist added to bath
T1 construct: The remaining inner tube of smooth muscle was known as the TMM; from tissue; host or cells: rat oesophagus tunica muscularis mucosae (TMM), male SD rats (Charles River)
T1 sequence (Q62758 whole entry): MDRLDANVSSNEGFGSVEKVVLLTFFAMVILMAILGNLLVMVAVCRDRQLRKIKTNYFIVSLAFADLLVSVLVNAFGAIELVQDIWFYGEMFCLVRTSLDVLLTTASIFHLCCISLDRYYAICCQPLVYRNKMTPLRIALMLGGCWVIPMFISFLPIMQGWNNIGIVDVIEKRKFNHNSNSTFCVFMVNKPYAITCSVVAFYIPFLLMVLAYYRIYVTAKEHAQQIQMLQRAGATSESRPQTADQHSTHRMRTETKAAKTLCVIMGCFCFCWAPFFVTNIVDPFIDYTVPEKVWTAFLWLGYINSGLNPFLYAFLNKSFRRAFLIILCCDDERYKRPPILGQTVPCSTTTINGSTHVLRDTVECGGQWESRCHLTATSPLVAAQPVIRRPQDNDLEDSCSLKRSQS
From the text: More specifically, partial agonist activity can be measured according to the following procedures.
Male SD rats (Charles River) weighing 250-350 g were stunned and then killed by cervical dislocation. The oesophagus was dissected from immediately proximal to the stomach (including piece of stomach to mark distal end) up to the level of the trachea and then placed in fresh Krebs' solution.
The outer skeletal muscle layer was removed in one go by peeling it away from the underlying smooth muscle layer using forceps (stomach to tracheal direction). The remaining inner tube of smooth muscle was known as the TMM. This was trimmed to 2 cm from the original ‘stomach-end’ and the rest discarded.
The TMMs were mounted as whole ‘open’ tubes in longitudinal orientation in 5 ml organ baths filled with warm (32° C.) aerated Krebs. Tissues were placed under an initial tension of 750 mg and allowed to equilibrate for 60 minutes. The tissues were re-tensioned twice at 15 minute intervals during the equilibration period. The pump flow rate was set to 2 ml/min during this time.
Following equilibration, the pump was switched off. The tissues were exposed to 1 μM carbachol and contracted and reached a steady contractile plateau within 15 minutes. Tissues were then subject to 1 μM 5-HT (this was to prime the tissues). The tissues relaxed in response to 5-HT fairly rapidly—within 1 minute. […]

Row | Compound | reversal of 5-HT induced relaxation [1] | melting point
1 | O=C(OCCN1CCCCC1)c1c[nH]c2ccccc12 [SB 203,186, 1H-Indole-3-carboxylic acid, 2-(1-piperidinyl)ethyl ester] | reversed 5-HT induced relaxation | –
2 | CC(C)n1c(=O)n(C(=O)NCC2CCN(CC(=O)N3CCOCC3)CC2)c2ccccc21 (as salt: oxalate) | – | 194.2 °C
